Test results: US8378104B2 (OSI Pharmaceuticals, LLC, priority 2010, dated 2013)
Structures can show the parent of a compound that is named as a salt.

Target: T1, TAK1-TAB1 fusion protein (Homo sapiens, UniProt O43318)
T1 construct: purchased Carna
T1 sequence (O43318 with tags, fused parts or gaps limits assumed): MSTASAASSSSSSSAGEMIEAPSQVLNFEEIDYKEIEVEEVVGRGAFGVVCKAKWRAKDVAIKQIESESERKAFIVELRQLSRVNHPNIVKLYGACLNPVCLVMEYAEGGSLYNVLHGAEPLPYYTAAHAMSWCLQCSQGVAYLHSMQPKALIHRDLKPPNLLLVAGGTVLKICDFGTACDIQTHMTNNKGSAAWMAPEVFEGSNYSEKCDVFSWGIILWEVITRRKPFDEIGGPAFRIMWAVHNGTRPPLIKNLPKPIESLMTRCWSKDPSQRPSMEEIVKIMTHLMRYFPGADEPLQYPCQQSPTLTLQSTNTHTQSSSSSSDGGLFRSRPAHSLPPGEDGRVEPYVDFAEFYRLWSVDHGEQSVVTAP
Assay: TAK1 biochemical assay (AlphaScreen, GST-MAP2K7 substrate)
Details: not given

SMILES	IC50 [nM]
COc1nn(C)cc1-c1cnc(N)c2oc(-c3csc4cnccc34)cc12 [Example 343, 4-(3-methoxy-1-methyl-1H-pyrazol-4-yl)-2-thieno[2,3-c]pyridin-3-yl-furo[2,3-c]pyridin-7-ylamine]	100 to 1000

Same assay, conditions: TAK1-TAB1 fusion protein, GST-MAP2K7 substrate; read-out: mean TAK1 IC50 (Col. A)

SMILES	IC50 [nM]
Nc1cc(-c2cc3c(-c4cnn(C5CCNCC5)c4)cnc(N)c3o2)cnc1Cl [Example 43, 2-(5-amino-6-chloropyridin-3-yl)-4-[1-(piperidin-4-yl)-1H-pyrazol-4-yl]furo[2,3-c]pyridine-7-amine]	100 to 1000
CC1(C)OCC(Cn2cc(-c3cnc(N)c4oc(-c5cccc6cnccc56)cc34)cn2)O1 (stereo not shown) [Example 61, 4-{1-[(2,2-dimethyl-1,3-dioxolan-4-yl)methyl]-1H-pyrazol-4-yl}-2-(isoquinolin-5-yl)furo[2,3-c]pyridin-7-amine]	1000 to 10000
CC(=O)N1CCC(n2cc(-c3cnc(N)c4oc(-c5cccc(OCCC(C)C)c5)cc34)cn2)CC1 [Example 208, 1-[4-(4-{7-amino-2-[3-(3-methylbutoxy)phenyl]furo[2,3-c]pyridin-4-yl}-1H-pyrazol-1-yl)piperidin-1-yl]ethanone]	> 10000
Nc1ncc(-c2cnn(CCO)c2)c2cc(-c3cccc4cnccc34)oc12 [Example 67, 2-{4-[7-amino-2-(isoquinolin-5-yl)furo[2,3-c]pyridin-4-yl]-1H-pyrazol-1-yl}ethanol]	1000 to 10000
Nc1ncc(-c2cnn(C3CCNCC3)c2)c2cc(-c3cccc4nn[nH]c34)oc12 [Example 46, 2-(1H-benzotriazol-7-yl)-4-[1-(piperidin-4-yl)-1H-pyrazol-4-yl]furo[2,3-c]pyridine-7-amine]	1000 to 10000
CN(C)S(=O)(=O)Nc1cccc(-c2cc3c(-c4cnn(C5CCNCC5)c4)cnc(N)c3o2)c1 [Example 24, N′-(3-{7-amino-4-[1-(piperidin-4-yl)-1H-pyrazol-4-yl]furo[2,3-c]pyridine-2-yl}phenyl)-N,N-dimethylsulfuric diamide]	1000 to 10000
CC(=O)N1CCC(n2cc(-c3cnc(N)c4oc(-c5csc6cc(=O)n(C)cc56)cc34)cn2)CC1 [Example 258, 3-{4-[1-(1-acetylpiperidin-4-yl)-1H-pyrazol-4-yl]-7-aminofuro[2,3-c]pyridin-2-yl}-5-methylthieno[3,2-c]pyridin-6(5H)-one trifluoroacetic Acid Salt]	1000 to 10000
CC(=O)N1CCC(n2cc(-c3cnc(N)c4oc(-c5cccc(OCC(F)(F)F)c5)cc34)cn2)CC1 [Example 187, 1-[4-(4-{7-amino-2-[3-(2,2,2-trifluoroethoxy)phenyl]furo[2,3-c]pyridin-4-yl}-1H-pyrazol-1-yl)piperidin-1-yl]ethanone]	1000 to 10000
CC(=O)N1CCC(n2cc(-c3cnc(N)c4oc(-c5ccccc5CO)cc34)cn2)CC1 [Example 194, 1-[4-(4-{7-amino-2-[2-(hydroxymethyl)phenyl]furo[2,3-c]pyridin-4-yl}-1H-pyrazol-1-yl)piperidin-1-yl]ethanone]	100 to 1000
Nc1ncc(-c2cnn(C3CCNCC3)c2)c2cc(-c3cccc(OC(F)(F)F)c3)oc12 [Example 22, 4-[1-(piperidin-4-yl)-1H-pyrazol-4-yl]-2-[3-(trifluoromethoxy)phenyl]furo[2,3-c]pyridine-7-amine]	> 10000
CCn1cc(-c2cnc(N)c3oc(-c4cccc5cnccc45)cc23)cn1 [Example 71, 4-(1-ethyl-1H-pyrazol-4-yl)-2-(isoquinolin-5-yl)furo[2,3-c]pyridin-7-amine]	1000 to 10000
COC(=O)c1cc2cccc(-c3cc4c(-c5cnn(C6CCNCC6)c5)cnc(N)c4o3)c2s1 [Example 48, methyl 7-{7-amino-4-[1-(piperidin-4-yl)-1H-pyrazol-4-yl]furo[2,3-c]pyridine-2-yl}-1-benzothiophene-2-carboxylate]	100 to 1000
CCOc1cc2c(-c3cc4c(-c5cnn(C6CCN(C(C)=O)CC6)c5)cnc(N)c4o3)csc2cn1 [Example 245, 1-(4-{4-[7-amino-2-(5-ethoxythieno[2,3-c]pyridin-3-yl)furo[2,3-c]pyridin-4-yl]-1H-pyrazol-1-yl}piperidin-1-yl)ethanone bis(trifluoroacetate)]	100 to 1000
CC(=O)N1CCC(n2cc(-c3cnc(N)c4oc(-c5ccc(N6CCCC6)nc5)cc34)cn2)CC1 [Example 139, 1-[4-(4-{7-amino-2-[6-(pyrrolidin-1-yl)pyridin-3-yl]furo[2,3-c]pyridin-4-yl}-1H-pyrazol-1-yl)piperidin-1-yl]ethanone]	> 10000
CC(C)(C)OC(=O)N1CCC(n2cc(-c3cnc(N)c4oc(-c5cccc6ccsc56)cc34)cn2)CC1 [Example 17A]	> 10000
CN(C)c1nc2cccc(-c3cc4c(-c5cnn([C@H]6CC[C@H](O)CC6)c5)cnc(N)c4o3)c2s1 [Example 371, trans-4-(4-{7-amino-2-[2-(dimethylamino)-1,3-benzothiazol-7-yl]furo[2,3-c]pyridin-4-yl}-1H-pyrazol-1-yl)cyclohexanol Trifluoroacetate (Salt)]	1000 to 10000
CC(=O)N1CCC(n2cc(-c3cnc(N)c4oc(-c5ccnc6ccccc56)cc34)cn2)CC1 [Example 175, 1-(4-{4-[7-amino-2-(quinolin-4-yl)furo[2,3-c]pyridin-4-yl]-1H-pyrazol-1-yl}piperidin-1-yl)ethanone]	100 to 1000

SMILES	IC50 [nM]
Nc1ncc(-c2cnn(C3CCNCC3)c2)c2cc(C3=CCNCC3)oc12 [Example 49, 4-[1-(piperidin-4-yl)-1H-pyrazol-4-yl]-2-(1,2,3,6-tetrahydropyridin-4-yl)furo[2,3-c]pyridin-7-amine dihydrochloride]	1000 to 10000
Nc1ncc(-c2cnn(CC(=O)O)c2)c2cc(-c3csc4cnccc34)oc12 [Example 296, [4-(7-amino-2-thieno[2,3-c]pyridin-3-yl-furo[2,3-c]pyridin-4-yl)-pyrazol-1-yl]-acetic acid]	100 to 1000
CCOC(=O)COc1cccc(-c2cc3c(-c4cnn(C5CCN(C(C)=O)CC5)c4)cnc(N)c3o2)c1 [Example 211, ethyl (3-{4-[1-(1-acetylpiperidin-4-yl)-1H-pyrazol-4-yl]-7-aminofuro[2,3-c]pyridin-2-yl}phenoxy)acetate]	> 10000
Nc1ncc(-c2cnn(C3CCNCC3)c2)c2cc(-c3ccccc3)oc12 [Example 2, 2-phenyl-4-[1-(piperidin-4-yl)-1H-pyrazol-4-yl]furo[2,3-c]pyridin-7-amine]	1000 to 10000
CC(=O)N1CCC(n2cc(-c3cnc(N)c4oc(-c5cccc(N)c5)cc34)cn2)CC1 [Example 130, 1-(4-{4-[7-amino-2-(3-aminophenyl)furo[2,3-c]pyridin-4-yl]-1H-pyrazol-1-yl}piperidin-1-yl)ethanone]	100 to 1000
Nc1ncc(-c2cnn(C3CCNCC3)c2)c2cc(-c3cccc(Cl)c3Cl)oc12 [Example 4, 2-(2,3-dichlorophenyl)-4-[1-(piperidin-4-yl)-1H-pyrazol-4-yl]furo[2,3-c]pyridin-7-amine]	1000 to 10000
Nc1ncc(-c2cnn(C3CCNCC3)c2)c2cc(-c3cc(C(F)(F)F)cc(C(F)(F)F)c3)oc12 [Example 1, 2-{(3,5-Bis-trifluoromethyl)phenyl}-4-(1-piperidin-4-yl-1H-pyrazol-4-yl)-furo[2,3-c]pyridin-7-ylamine]	1000 to 10000
CC(=O)c1ccccc1-c1cc2c(-c3cnn(C4CCN(C(C)=O)CC4)c3)cnc(N)c2o1 [Example 193, 1-(4-{4-[2-(2-acetylphenyl)-7-aminofuro[2,3-c]pyridin-4-yl]-1H-pyrazol-1-yl}piperidin-1-yl)ethanone]	1000 to 10000
Nc1ccc(-c2nc(-c3cc4c(-c5cnn(C6CCNCC6)c5)cnc(N)c4o3)ccc2N)nc1Cl [Example 30, 6-{7-amino-4-[1-(piperidin-4-yl)-1H-pyrazol-4-yl]furo[2,3-c]pyridine-2-yl}-6′-chloro-2,2′-bipyridine-3,5′-diamine]	100 to 1000
Nc1ncc(-c2cnn(C3CCNCC3)c2)c2cc(-c3cccc(C(F)(F)F)c3)oc12 [Example 6, 4-[1-(piperidin-4-yl)-1H-pyrazol-4-yl]-2-[3-(trifluoromethyl)phenyl]furo[2,3-c]pyridin-7-amine]	1000 to 10000
CCC(=O)N1CCC(n2cc(-c3cnc(N)c4oc(-c5cccc6ccsc56)cc34)cn2)CC1 [Example 58, 1-(4-{4-[7-amino-2-(1-benzothiophen-7-yl)furo[2,3-c]pyridin-4-yl]-1H-pyrazol-1-yl}piperidin-1-yl)propan-1-one]	1000 to 10000
COc1ccccc1COc1cccc(-c2cc3c(-c4cnn(C5CCN(C(C)=O)CC5)c4)cnc(N)c3o2)c1 [Example 212, 1-{4-[4-(7-amino-2-{3-[(2-methoxybenzyl)oxy]phenyl}furo[2,3-c]pyridin-4-yl)-1H-pyrazol-1-yl]piperidin-1-yl}ethanone]	> 10000
CC(=O)N1CCC(n2cc(-c3cnc(N)c4oc(-c5cccc6ccoc56)cc34)cn2)CC1 [Example 196, 1-(4-{4-[7-amino-2-(1-benzofuran-7-yl)furo[2,3-c]pyridin-4-yl]-1H-pyrazol-1-yl}piperidin-1-yl)ethanone]	> 10000
COc1c(-c2cnc(N)c3oc(-c4csc5cnccc45)cc23)cnn1C [Example 344, 4-(5-methoxy-1-methyl-1H-pyrazol-4-yl)-2-thieno[2,3-c]pyridin-3-yl-furo[2,3-c]pyridin-7-ylamine]	100 to 1000
CC(=O)N1CCC(n2cc(-c3cnc(N)c4oc(-c5cccc6ccncc56)cc34)cn2)CC1 [Example 190, 1-(4-{4-[7-amino-2-(isoquinolin-8-yl)furo[2,3-c]pyridin-4-yl]-1H-pyrazol-1-yl}piperidin-1-yl)ethanone]	1000 to 10000
O[C@H]1CC[C@H](n2cc(-c3cncc4oc(-c5cccc6ncsc56)cc34)cn2)CC1	100 to 1000
